This note sets out measurements from patent US5624917A, “Method of inhibiting squalene synthetase” (Takeda Chemical Industries, Ltd., priority 1991, dated 1997).

Experiment [1] concerns the target T1, squalene synthetase (Homo sapiens, UniProt P37268).
T1 construct: From the resulting sonicate, microsome fraction was obtained according to the same manner as that described in Experiment 1; endogenous in cells; host or cells: HepG2 human hepatoma cells (microsome fraction)
T1 sequence (P37268 1-417): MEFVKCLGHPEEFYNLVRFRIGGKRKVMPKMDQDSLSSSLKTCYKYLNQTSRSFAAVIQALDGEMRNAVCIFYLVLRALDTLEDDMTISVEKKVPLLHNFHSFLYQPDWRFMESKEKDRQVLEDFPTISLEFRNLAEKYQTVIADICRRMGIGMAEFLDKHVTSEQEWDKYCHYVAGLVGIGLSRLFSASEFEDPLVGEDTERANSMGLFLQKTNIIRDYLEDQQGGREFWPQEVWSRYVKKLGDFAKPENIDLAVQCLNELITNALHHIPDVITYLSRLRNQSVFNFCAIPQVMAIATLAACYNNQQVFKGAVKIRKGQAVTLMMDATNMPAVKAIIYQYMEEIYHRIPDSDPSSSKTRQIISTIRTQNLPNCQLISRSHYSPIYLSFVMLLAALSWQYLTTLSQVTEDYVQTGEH
The experiment is described as follows: Squalene synthetase inhibitory activity, human enzyme (HepG2 microsome fraction). It is filed as biochemical. On the procedure:
(§1) Squalene synthetase inhibitory activity and cholesterol biosynthesis inhibitory activity of the compounds used in the present invention were determined by the following method.
(§2) Determination of squalene synthetase inhibitory activity
(§3) The squalene synthetase inhibitory activity was determined as follows by using the enzyme solutions shown in Experiments 1 and 2 below.
(§4) Each enzyme solution (Protein: 0.8 μg) prepared in Experiments 1 and 2 was added to a solution (total amount: 50 μl) containing 5 μM[1-^3 H]farnesylpyrophosphoric acid (Specific activity 25 μCi/μmole), 1 mM NADPH, 5 mM MgCl2, 6 mM glutathione, 100 mM potassium phosphate buffer (pH 7.4) and a drug to be tested (which was added as a solution thereof in water or DMSO). The mixture was allowed to react at 37° C. for 45 minutes. A mixture (150 μl) of chloroform and methanol (1:2) was added to stop the reaction. Then, chloroform (50 μl) and 3N sodium hydroxide solution (50 μl) were added. The chloroform layer (under layer, 50 μl) containing the reaction products in which the major component was squalene was mixed with toluene liquid scintillator (3 ml). The radioactivity was measured with a liquid scintillation counter.
(§5) The squalene synthetase inhibitory activity is indicated by the concentration (IC50, molarity(M)) which inhibits the radioactivity incorporated into the chloroform layer by 50%.
Preparation of human enzyme
Cultivation was carried out on Dulbecco modified Eagle medium containing 10% bovine fetal serum in the presence of 5% CO2 at 37° C. The human hepatoma cells HepG2 (ca. 1×10^9 cells) were suspended in an ice-cooled buffer solution (10 ml) [100 mM potassium phosphate (pH 7.4), 30 mM nicotinamide, 2.5 mM MgCl2 ], and the cells were crushed by ultrasonication (30 seconds, twice). From the resulting sonicate, microsome fraction was obtained according to the same manner as that described in Experiment 1. This microsome fraction was suspended in an ice-cooled 100 mM potassium phosphate buffer solution (pH 7.4) so that the protein concentration became about 4 mg/ml, and this suspension was used as the enzyme liquid.

Experiment [2] deals with T2, squalene synthetase (Rattus norvegicus, UniProt Q02769).
T2 construct: from tissue; host or cells: liver of male SD rats (microsome fraction)
T2 sequence (Q02769 1-416): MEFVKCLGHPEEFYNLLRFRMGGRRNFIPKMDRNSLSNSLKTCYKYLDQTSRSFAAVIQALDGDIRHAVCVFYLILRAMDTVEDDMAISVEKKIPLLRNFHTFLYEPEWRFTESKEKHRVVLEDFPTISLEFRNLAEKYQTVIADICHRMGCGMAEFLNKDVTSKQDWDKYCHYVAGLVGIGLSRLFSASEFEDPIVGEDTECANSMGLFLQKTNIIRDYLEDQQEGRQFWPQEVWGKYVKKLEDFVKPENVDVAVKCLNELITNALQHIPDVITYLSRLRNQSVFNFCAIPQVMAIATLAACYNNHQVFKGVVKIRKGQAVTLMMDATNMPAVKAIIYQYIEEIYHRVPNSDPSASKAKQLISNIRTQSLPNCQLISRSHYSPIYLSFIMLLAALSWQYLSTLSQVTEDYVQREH
The experiment is described as follows: Squalene synthetase inhibitory activity, rat enzyme (rat liver microsome fraction). It is filed as biochemical. To be noted: 5 μM [1-3H]farnesylpyrophosphoric acid, pH 7.4, 37° C., 45 minutes. As to the method:
as §1, §2, §3, §4, §5
Preparation of rat enzyme
SD-Male rats (6 weeks old) were bled to death followed by removal of liver. The liver (ca. 10 g) was washed with ice-cooled physiological saline, homogenized in an ice-cooled buffer solution (15 ml) [100 mM potassium phosphate (pH 7.4), 15 mM nicotinamide, 2 mM MgCl2 ] and centrifuged at 10,000×g for 20 minutes (4° C.). The resulting supernatant was further centrifuged at 105,000×g for 90 minutes (4° C.). Then, the deposit was suspended in an ice-cooled 100 mM potassium phosphate buffer solution (pH 7.4) and centrifuged at 105,000×g for 90 minutes (4° C.) again. The deposit (microsome fraction) thus obtained was suspended in an ice-cooled 100 mM potassium phosphate buffer solution (pH 7.4) so that the protein concentration became about 40 mg/ml (measured with BCA Protein Assay Kit (Pias)), and the suspension was used as the enzyme solution.
In general terms: Liver microsomes are a subcellular fraction often used to study metabolism.

Setting [3] is: human hepatoma HepG2 microsome fraction, 5 μM [1-3H]farnesylpyrophosphoric acid, pH 7.4, 37° C., 45 minutes, read-out: IC50, squalene synthetase inhibitory activity, Human enzyme.
Where [4] appears, read: read-out: IC50, squalene synthetase inhibitory activity, Rat enzyme.
Setting [5] is: IC50, squalene synthetase inhibitory activity, Rat enzyme.

Where a name gives a salt, the structure may show the parent alone. Read-outs that look alike come from different tables or passages of the source.

In general, IC50 refers to the concentration at which inhibition is half-maximal. Turning to `CC(C)CCCC(C)CCCC(C)CCC(P(=O)(O)O)P(=O)(O)O` (stereo not shown) [Compound No. 108, disodium 4,8,12-trimethyltridecylidene-1,1-bisphosphonate], the IC50 at squalene synthetase [1] (setting [3]) is 44 nM; on squalene synthetase [2] (setting [4]) it was 23 nM.

Take `O=P(O)(O)C(O)(CCCCCSc1ccccn1)P(=O)(O)O` [Compound No. 109, trisodium 1-hydroxy-6-(2-pyridylthio)hexane-1,1-bisphosphonate]: the figures for the IC50 at squalene synthetase [1] (setting [3]) and at squalene synthetase [2] (setting [4]) were 5800 nM and 1300 nM, respectively.

Consider `O=P(O)(O)C(NCCCCNc1ccccc1)P(=O)(O)O` [Compound No. 110, 4-(phenylamino)butylaminomethylene-1,1-bisphosphonic acid hydrochloride], for which the IC50 on squalene synthetase [1] (setting [3]) stood at 61 nM; on squalene synthetase [2] (setting [4]), 44 nM.

For `CCOP(=O)(O)C(NC/C=C(\C)CC/C=C(\C)CCC=C(C)C)P(=O)(O)O` (stereo not shown) [Compound No. 111, (E,E)-farnesylaminomethylenebisphosphonic acid monoethyl ester monosodium salt], the IC50 at squalene synthetase [1] was 22 nM; on squalene synthetase [2] (setting [5]), 19 nM.

As to `CCOP(=O)(O)C(NCCCCCCSc1ccccc1)P(=O)(O)O` (stereo not shown) [Compound No. 113, 6-(phenylthio)hexylaminomethylenebisphosphonic acid monoethyl ester monosodium salt], the IC50 on squalene synthetase [1] is 9.8 nM; against squalene synthetase [2] (setting [5]), 15 nM.

Turning to `O=P(O)(O)C(NCCCCSc1ccccc1)P(=O)(O)O` [compound 1], the IC50 was determined as 8.9 nM at squalene synthetase [1] (setting [3]) and 18 nM on squalene synthetase [2] (setting [4]).

Regarding `O=P(O)(O)C(NCCCCSc1ccccn1)P(=O)(O)O` [compound 2], the figures for the IC50 at squalene synthetase [1] (setting [3]) and at squalene synthetase [2] (setting [4]) were 180 nM and 97 nM, respectively.

As for `O=P(O)(O)C(NCCCCSc1ccncc1)P(=O)(O)O` [compound 3], the IC50 at squalene synthetase [1] (setting [3]) amounted to 300 nM; at squalene synthetase [2] (setting [4]) it was 210 nM.

As for `CCSCCCCNC(P(=O)(O)O)P(=O)(O)O` [compound 4], the IC50 at squalene synthetase [1] (setting [3]) came to 1300 nM; on squalene synthetase [2] (setting [4]) it was 370 nM.

As to `CC(C)(C)SCCCCNC(P(=O)(O)O)P(=O)(O)O` [compound 5], the IC50 came to 9100 nM on squalene synthetase [1] (setting [3]) and 760 nM at squalene synthetase [2] (setting [4]).

Take `O=P(O)(O)C(NCCCCCSc1ccccc1)P(=O)(O)O` [compound 6]: at squalene synthetase [2] (setting [4]), the IC50 was found to be 5.7 nM.

As to `O=P(O)(O)C(NCCCCCSC1CCCCC1)P(=O)(O)O` [compound 7], the IC50 on squalene synthetase [1] (setting [3]) is 18 nM; on squalene synthetase [2] (setting [4]) it was 19 nM.

Regarding `CCSCCCCCNC(P(=O)(O)O)P(=O)(O)O` [compound 8], the IC50 came out at 110 nM at squalene synthetase [1] (setting [3]) and 68 nM on squalene synthetase [2] (setting [4]).

Turning to `O=P(O)(O)C(NCCCC[S+]([O-])c1ccccc1)P(=O)(O)O` (stereo not shown) [compound 9], the IC50 was 6.3 nM on squalene synthetase [1] (setting [3]) and 9 nM at squalene synthetase [2] (setting [4]).

In the case of `O=P(O)(O)C(NCCCCCOc1ccccc1)P(=O)(O)O` [compound 10], the IC50 on squalene synthetase [1] (setting [3]) turned out to be 5.2 nM; at squalene synthetase [2] (setting [4]), 8.1 nM.

`O=P(O)(O)C(NCCCCCCSc1ccccc1)P(=O)(O)O` [compound 11]: the values for the IC50 at squalene synthetase [1] (setting [3]) and on squalene synthetase [2] (setting [4]) were 1.5 nM and 3.6 nM, respectively.

Consider `O=P(O)(O)C(NCCCCS(=O)(=O)c1ccccc1)P(=O)(O)O` [compound 12], for which the IC50 on squalene synthetase [2] (setting [4]) amounted to 6400 nM.

For the molecule `O=P(O)(O)C(NCCCCOc1ccc2c(c1)OCO2)P(=O)(O)O` [compound 13], the IC50 at squalene synthetase [1] (setting [3]) was determined as 14 nM; on squalene synthetase [2] (setting [4]), 19 nM.

In the case of `CCOP(=O)(OCC)C(NCCCCCc1ccccc1)P(=O)(OCC)OCC` [compound 14], the half-maximal inhibitory concentration (IC50) came out at 450 nM on squalene synthetase [1] (setting [3]) and 560 nM at squalene synthetase [2] (setting [4]).

Consider `CCOP(=O)(OCC)C(NCCCCCSC1CCCCC1)P(=O)(OCC)OCC` [compound 15], for which the IC50 on squalene synthetase [2] (setting [4]) is 4100 nM.

In the case of `O=P(O)(O)C(CCCc1ccccc1)P(=O)(O)O` [compound 21, 4-phenylbutylidene-1,1-bisphosphonic acid], at squalene synthetase [2] (setting [4]), the IC50 came out at 5500 nM.

With `O=P(O)(O)C(NCCCCCSc1ccccc1)P(=O)(O)O` [compound 88], the IC50 at squalene synthetase [2] (setting [4]) worked out at 13 nM.

In the case of `O=P(O)(O)C(NCCCCCCCCCCCCSc1ccccc1)P(=O)(O)O` [compound 89, monosodium 12-(phenylthio)dodecylaminomethylenebisphosphonate], the IC50 on squalene synthetase [2] (setting [4]) amounted to 8.1 nM.
